Values of other authors as cited in patent publication EP3771336A1, “REPELLENT COMPOSITION” (priority 2019, dated 2021).
Values after ≈ are worked out from the molar mass of the structure shown.

How the values were obtained:
Daphnia magna = details: aquatic toxicity, daphnids
[1] = at 25°C

Row | Structure (SMILES) | EC50 (Daphnia magna) [µg/mL] | vapor pressure [1] | solubility in water
1 | CCCCCCCCCC(=O)O [Decanoic acid] | 16 (≈ 92.9 µM) | 4.88 x 10^-5 kPa | –
2 | CCCCCCCCCCCC(=O)OC(C)C [IPL, propan-2-yl dodecanoate] | – | – | poor solubility in water
3 | CCCCCCCCCCCCCCCC(=O)OC(C)C [IPP, propan-2-yl hexadecanoate] | – | – | immiscible with water
4 | CCCCCCCCCCCC(=O)O [lauric acid, dodecanoic acid] | – | 2.13 x 10^-6 kPa | poorly soluble in water
